Assay results: ChEMBL document CHEMBL4420067, “Inhibitors of alpha-amino-beta-carboxymuconic acid semialdehyde decarboxylase” (2018)

Target: 2-amino-3-carboxymuconate-6-semialdehyde decarboxylase (Homo sapiens, UniProt Q8TDX5)
Assay: Inhibition of human recombinant ACMSD1 expressed in Escherichia coli BL21 (DE3) cells assessed as reduction in conversion of 3-OH-anthranilic acid into ACMS by spectrophotometry

2-amino-3-carboxymuconate-6-semialdehyde decarboxylase, sequence (Q8TDX5 whole entry): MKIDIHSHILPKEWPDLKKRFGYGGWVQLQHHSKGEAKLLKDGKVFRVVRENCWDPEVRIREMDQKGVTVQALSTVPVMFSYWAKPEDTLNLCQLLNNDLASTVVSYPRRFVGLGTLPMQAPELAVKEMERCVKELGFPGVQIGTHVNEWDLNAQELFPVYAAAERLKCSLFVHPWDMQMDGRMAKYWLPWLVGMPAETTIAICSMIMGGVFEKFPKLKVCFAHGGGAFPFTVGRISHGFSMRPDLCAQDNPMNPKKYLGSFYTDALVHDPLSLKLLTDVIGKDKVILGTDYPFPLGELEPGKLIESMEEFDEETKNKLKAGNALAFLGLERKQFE

Structure (SMILES) | IC50 [nM]
COc1cccc(/C=C/c2[nH]c(=S)[nH]c(=O)c2C#N)c1OCC(=O)O | > 100
COc1cccc(/C=C/c2[nH]c(=O)[nH]c(=O)c2[N+](=O)[O-])c1OCC(=O)O | > 100
N#Cc1c(/C=C/c2ccccc2-c2cc(F)c(O)c(F)c2)[nH]c(=S)[nH]c1=O | > 100

More lines, now with the values ahead:

IC50 [nM] | Structure (SMILES)
> 100 | CCOc1cccc(/C=C/c2[nH]c(=S)[nH]c(=O)c2C#N)c1OCC(=O)O
> 100 | N#Cc1c(/C=C/c2cccc(O)c2O)[nH]c(=S)[nH]c1=O
